# Measured values taken from patent publication USRE39707E1, “Camptothecin derivatives” (Catholic Healthcare West, priority 2001, dated 2007).
# Experiments:
# [1] = test system: MTG-B mouse mammary Adenocarcinoma; assay: In vivo efficacy in C3H/HeJ mice bearing MTG-B tumors; conditions: for T (Surviving days after treatment of MTG-B mouse mammary Adenocarcinoma In C3H/Hej mice): i.p., control mice survived 6 days; for CD/Taxol: ratio of extra days of survival with compound to extra days of survival with taxol, each compared to control; for T/C %: surviving days treated / surviving days control x 100%, control 6 days
# Procedure: This example provides directions for performing in vivo efficacy tests of the compounds of the invention on C3H/HeJ mice bearing MTG-B tumors.
# Studies on the compounds of this invention were performed on C3H/HeJ mice bearing […] tumors. […] Treatment was initiated at that time, with the first day of treatment designated as day 0 for calculation and plots. The mice were injected i.p. with thee drug dose levels (⅓, ½, 1×MTD) using both a single injection and the schedule of Q2D×3 (every 2 days for a total of 3 treatments at ⅓ MTD). Control groups of mice bearing 8 mm diameter tumors were treated with vehicle alone. […] When a tumor reached 1.5 g, the mouse bearing the tumor was euthanized. Surviving days measured from day 0 for mice treated with anticancer drugs (T) and surviving days measured from day 0 for control mice (C) were recorded. Tumor growth inhibition values (T/C %) were calculated using the formula T/C %=(surviving days of mice treated with an anticancer drug T/surviving days of control mice C)×100%, as shown in Table II.
# The final right-hand column in Table II provides a ratio of the extra days of survival of mice treated with the compounds of the invention (compared to control) to the extra days of survival of mice treated with taxol (compared to control).
# C3H/HeJ mice = conditions: maximum tolerated dose at day 40, C3H/HeJ mice
# Procedure: This example provides directions for performing in vivo toxicity tests of the compounds of the invention on C3H/HeJ mice.
# Acute toxicities of the compounds of this invention are evaluated on C3H/HeJ mice (body weight 18-22 g). The MTD40 (maximum tolerated dose at day 40) values were determined by the standard procedure described by Gad and Chengelis (see, for example, “Acute Toxicology Testing,” 2nd Ed., Shayne O. Gad and Christopher P. Chengelis, pp. 186-195 (Academic Press)). In the consecutive type studies, 2 mice were dosed at low and moderate doses of 40 and 100 mg/kg. If no severe and irreversible toxicity (euthanasia is required) occurs at these doses, a new pair of animals was initiated at 180 mg/kg, which is 1.8 times higher than 100 mg/kg. Sequential dosages (about 3 doses on 3 pairs of animals, i.e. 2 mice for each drug dose) were increased by a factor of 1.8 until severe and irreversible toxicity (euthanasia is required) occurred. Then another pair of animals was initiated at the highest nonlethal dosage, and successive dosages were increased by a factor of 1.15. The result of this exercise was two dosages, one apparently nonlethal and the other lethal if severe and irreversible toxicity occurs and euthanasia is required, separated by a factor of 1.15. Six mice were dosed at each dosage. If no severe and irreversible toxicity occurred at the lower dosage and at least one with severe and irreversible toxicity occurred at the higher dose, then the lower dose was considered to be the MTD. The compounds of this invention were administered to C3H/HeJ mice by intraperitoneal injection. Drug toxicity was evaluated on mice checked daily for 45 days.
# VM46 = assay: Cell colony formation assay, VM46 cells; format: cell-based; conditions: 72 hours drug exposure
# Procedure: (§1) This example provides directions for growing cells and testing compounds of the invention for their effect on the growth of the cells. All cells were purchased from DCIDC Tumor Repository, NCI, NIH.
# (§2) Four hundred cells (HCT 116, PC-3, NCI/ADR-RES: human breast cancer cells) or five hundred cells (VM46) were plated in 60 mm Petri dishes containing 2.7 ml of medium (modified McCoy's 5a medium) containing 10% fetal bovine serum and 100 units/ml penicillin and 100 mg/ml streptomycin. The cells were incubated in a CO2 incubator at 37° C. for 5 hours for attachment to the bottom of Petri dishes. Drugs were made fresh in medium at ten times the final concentration, and then 0.3 ml of this stock solution was added to the 2.7 ml of medium in the dish. The cells were then incubated with drugs for 72 hours at 37° C. At the end of the incubation the drug-containing media were decanted, the dishes were rinsed with 4 ml of Hank's Balance Salt Solution (HBSS), 5 ml of fresh medium was added, and the dishes were returned to the incubator for colony formation. The cell colonies were counted using colony counter after incubation for 7 days for HCT116 cells and PC-3 cells and 8 days for VM46 cells, respectively.
# (§3) Values of ID50 (the drug concentration producing 50% inhibition of colony formation) may be determined for each tested compound. The directions described in this example may be used in other cells, such as DU-145.
# PC-3 = assay: Cell colony formation assay, PC-3 cells; format: cell-based, human; conditions: 72 hours drug exposure
# Procedure: as §1, §2, §3
# HCT116 = assay: Cell colony formation assay, HCT116 cells; format: cell-based, human; conditions: 72 hours drug exposure
# Procedure: as §1
# as §2, with “The” for “Four hundred cells (HCT 116, PC-3, NCI/ADR-RES: human breast cancer cells) or five hundred cells (VM46) were plated in 60 mm Petri dishes containing 2.7 ml of medium (modified McCoy's 5a medium) containing 10% fetal bovine serum and 100 units/ml penicillin and 100 mg/ml streptomycin. The”
compound,measurement,setting,value
"CCC1(OC(=O)COc2ccc(Cl)cc2C)C(=O)OCc2c1cc1n(c2=O)Cc2cc3ccccc3nc2-1 (stereo not shown) [Example 000127, Camptothecin-20-O-ester of 4-chloro-2-methylphenoxyacetic acid]",T (Surviving days after treatment of MTG-B mouse mammary Adenocarcinoma In C3H/Hej mice),[1],13 days
same,CD/Taxol,[1],2.3
same,T/C %,[1],217%
same,"In Vivo Toxicity MTD40 (ip, mg/kg) in C3H/Hej Mice",C3H/HeJ mice,>150 mg/kg
same,In vitro efficacy: Survival (%) of cells line VM46,VM46; 1 nM,47.33%
same,In vitro efficacy: Survival (%) of cells line VM46,VM46; 10 nM,0%
same,In vitro efficacy: Survival (%) of cells line PC-3,PC-3; 1 nM,88.97%
same,In vitro efficacy: Survival (%) of cells line PC-3,PC-3; 5 nM,31.46%
same,In Vitro Efficacy: Survival (%) of HCT116,HCT116; 1 nM,86.48%
same,In Vitro Efficacy: Survival (%) of HCT116,HCT116; 10 nM,0%
same,In Vitro Efficacy: Survival (%) of HCT116,HCT116; 100 nM,0%
CCC1(OC(=O)COc2ccc3c(C)c(Cl)c(=O)oc3c2)C(=O)OCc2c1cc1n(c2=O)Cc2cc3ccccc3nc2-1 (stereo not shown) [Example 000129],T (Surviving days after treatment of MTG-B mouse mammary Adenocarcinoma In C3H/Hej mice),[1],12 days
same,CD/Taxol,[1],2.0
same,T/C %,[1],200%
same,"In Vivo Toxicity MTD40 (ip, mg/kg) in C3H/Hej Mice",C3H/HeJ mice,75 mg/kg
same,In vitro efficacy: Survival (%) of cells line VM46,VM46; 1 nM,28.15%
same,In vitro efficacy: Survival (%) of cells line VM46,VM46; 10 nM,0%
same,In vitro efficacy: Survival (%) of cells line PC-3,PC-3; 1 nM,88.04%
same,In vitro efficacy: Survival (%) of cells line PC-3,PC-3; 5 nM,10.31%
same,In Vitro Efficacy: Survival (%) of HCT116,HCT116; 1 nM,74.73%
same,In Vitro Efficacy: Survival (%) of HCT116,HCT116; 10 nM,0%
same,In Vitro Efficacy: Survival (%) of HCT116,HCT116; 100 nM,0%
"CCC1(OC(=O)COc2ccc3ccccc3c2)C(=O)OCc2c1cc1n(c2=O)Cc2cc3ccccc3nc2-1 (stereo not shown) [Example 000224, Camptothecin-20-O-ester of 2-napthoxyacetic acid]",T (Surviving days after treatment of MTG-B mouse mammary Adenocarcinoma In C3H/Hej mice),[1],7 days
same,CD/Taxol,[1],.3
same,T/C %,[1],117%
same,"In Vivo Toxicity MTD40 (ip, mg/kg) in C3H/Hej Mice",C3H/HeJ mice,>150 mg/kg
same,In vitro efficacy: Survival (%) of cells line VM46,VM46; 1 nM,62.69%
same,In vitro efficacy: Survival (%) of cells line VM46,VM46; 10 nM,0%
same,In vitro efficacy: Survival (%) of cells line PC-3,PC-3; 1 nM,87.34%
same,In vitro efficacy: Survival (%) of cells line PC-3,PC-3; 5 nM,37.98%
same,In Vitro Efficacy: Survival (%) of HCT116,HCT116; 1 nM,100%
same,In Vitro Efficacy: Survival (%) of HCT116,HCT116; 10 nM,0%
same,In Vitro Efficacy: Survival (%) of HCT116,HCT116; 100 nM,0%
"CCC1(OC(=O)COc2ccc(C=O)cc2)C(=O)OCc2c1cc1n(c2=O)Cc2cc3ccccc3nc2-1 (stereo not shown) [Example 000313, Camptothecin-20-O-ester of 4-formylphenoxyacetic acid]",T (Surviving days after treatment of MTG-B mouse mammary Adenocarcinoma In C3H/Hej mice),[1],9 days
same,CD/Taxol,[1],1.0
same,T/C %,[1],150%
same,"In Vivo Toxicity MTD40 (ip, mg/kg) in C3H/Hej Mice",C3H/HeJ mice,>150 mg/kg
same,In vitro efficacy: Survival (%) of cells line VM46,VM46; 1 nM,41.58%
same,In vitro efficacy: Survival (%) of cells line VM46,VM46; 10 nM,0%
same,In vitro efficacy: Survival (%) of cells line PC-3,PC-3; 1 nM,89.51%
same,In vitro efficacy: Survival (%) of cells line PC-3,PC-3; 5 nM,21.16%
same,In Vitro Efficacy: Survival (%) of HCT116,HCT116; 1 nM,100%
same,In Vitro Efficacy: Survival (%) of HCT116,HCT116; 10 nM,0%
same,In Vitro Efficacy: Survival (%) of HCT116,HCT116; 100 nM,0%
"CC[C@@]1(OC(=O)COc2ccc(Br)cc2)C(=O)OCc2c1cc1n(c2=O)Cc2cc3ccccc3nc2-1 [Example 000315, Camptothecin-20-Oester of 4-bromophenoxyacetic acid]",T (Surviving days after treatment of MTG-B mouse mammary Adenocarcinoma In C3H/Hej mice),[1],18 days
same,CD/Taxol,[1],4
same,T/C %,[1],300%
same,"In Vivo Toxicity MTD40 (ip, mg/kg) in C3H/Hej Mice",C3H/HeJ mice,>150 mg/kg
same,In vitro efficacy: Survival (%) of cells line VM46,VM46; 1 nM,64.37%
same,In vitro efficacy: Survival (%) of cells line VM46,VM46; 10 nM,0%
same,In vitro efficacy: Survival (%) of cells line PC-3,PC-3; 1 nM,87.38%
same,In vitro efficacy: Survival (%) of cells line PC-3,PC-3; 5 nM,22.24%
same,In Vitro Efficacy: Survival (%) of HCT116,HCT116; 1 nM,100%
same,In Vitro Efficacy: Survival (%) of HCT116,HCT116; 10 nM,0%
same,In Vitro Efficacy: Survival (%) of HCT116,HCT116; 100 nM,0%
"CCC1(OC(=O)COc2c(F)c(F)c(F)c(F)c2F)C(=O)OCc2c1cc1n(c2=O)Cc2cc3ccccc3nc2-1 (stereo not shown) [Example 000410, Camptothecin-20-O-ester of 2,3,4,5,6-pentafluorophenoxyacetic acid]",T (Surviving days after treatment of MTG-B mouse mammary Adenocarcinoma In C3H/Hej mice),[1],12 days
same,CD/Taxol,[1],2.0
same,T/C %,[1],200%
same,"In Vivo Toxicity MTD40 (ip, mg/kg) in C3H/Hej Mice",C3H/HeJ mice,45 mg/kg
same,In vitro efficacy: Survival (%) of cells line VM46,VM46; 1 nM,68.75%
same,In vitro efficacy: Survival (%) of cells line VM46,VM46; 10 nM,0%
same,In vitro efficacy: Survival (%) of cells line PC-3,PC-3; 1 nM,93.31%
same,In vitro efficacy: Survival (%) of cells line PC-3,PC-3; 5 nM,23.33%
same,In Vitro Efficacy: Survival (%) of HCT116,HCT116; 1 nM,88.96%
same,In Vitro Efficacy: Survival (%) of HCT116,HCT116; 10 nM,0%
same,In Vitro Efficacy: Survival (%) of HCT116,HCT116; 100 nM,0%
"CCC1(OC(=O)COc2ccc(OCc3ccccc3)cc2)C(=O)OCc2c1cc1n(c2=O)Cc2cc3ccccc3nc2-1 (stereo not shown) [Example 000425, Camptothecin-20-O-ester of 4-benzyloxyphenoxyacetic acid]","In Vivo Toxicity MTD40 (ip, mg/kg) in C3H/Hej Mice",C3H/HeJ mice,<150 mg/kg
same,In vitro efficacy: Survival (%) of cells line VM46,VM46; 1 nM,80.46%
same,In vitro efficacy: Survival (%) of cells line VM46,VM46; 10 nM,0%
same,In vitro efficacy: Survival (%) of cells line PC-3,PC-3; 1 nM,99.28%
same,In vitro efficacy: Survival (%) of cells line PC-3,PC-3; 5 nM,71.61%
same,In Vitro Efficacy: Survival (%) of HCT116,HCT116; 1 nM,100%
same,In Vitro Efficacy: Survival (%) of HCT116,HCT116; 10 nM,0%
same,In Vitro Efficacy: Survival (%) of HCT116,HCT116; 100 nM,0%
"CCC1(OC(=O)COc2cccc(CBr)c2)C(=O)OCc2c1cc1n(c2=O)Cc2cc3ccccc3nc2-1 (stereo not shown) [Example 000501, Camptothecin-20-O-ester of 3-bromomethylphenoxyacetic acid]","In Vivo Toxicity MTD40 (ip, mg/kg) in C3H/Hej Mice",C3H/HeJ mice,<150 mg/kg
same,In vitro efficacy: Survival (%) of cells line VM46,VM46; 1 nM,86.60%
same,In vitro efficacy: Survival (%) of cells line VM46,VM46; 10 nM,0%
same,In vitro efficacy: Survival (%) of cells line PC-3,PC-3; 1 nM,96.02%
same,In vitro efficacy: Survival (%) of cells line PC-3,PC-3; 5 nM,41.77%
same,In Vitro Efficacy: Survival (%) of HCT116,HCT116; 1 nM,100%
same,In Vitro Efficacy: Survival (%) of HCT116,HCT116; 10 nM,0%
same,In Vitro Efficacy: Survival (%) of HCT116,HCT116; 100 nM,0%
